The test deals with aquaporin 3. The test is described as follows: Expression of aquaporin 3 by immunofluorescence in samples of skin ex vivo. The conditions noted are these: 1% solution of a mother solution at 50 ppm applied topically, 24 hours or 48 hours; in particular upper layers of the epidermis; vs non-treated control. In kind it is cell-based, human. As to the method:
The aim of this study is to determine the influence of the peptide SEQ ID no 5 on the expression of aquaporin 3 in samples of skin ex vivo.
Protocol: Samples of human skin are cultured at the air/liquid interface. A 1% solution of a mother solution at 50 ppm of peptide SEQ ID no 4 is applied topically, then the samples are incubated for 24 hours or 48 hours.
These skin samples are then fixed with formaldehyde then enclosed in paraffin. Sections of 2 to 3 μm are then realized. The immunolabeling is carried out after different stages of washing and incubation of these sections. The immunolabeling is carried out by means of a specific polyclonal antibody of aquaporin 3 (anti-aquaporin 3 (C-18): goat polyclonal, sc-9885, Santa Cruz, dilution 1/100th), then a secondary antibody, coupled to a fluorescent marker (alexa-fluor 488 donkey anti-goat Ig G, Molecular Probes, dilution 1/1000th). The skin sections are then examined by epifluorescence microscope (Nikon Eclipse E600 microscope).

Peptide text beside a SMILES is read from it.

Turning to `C[C@H](NC(=O)[C@@H]1CCCN1C(=O)[C@@H](N)CC(N)=O)C(=O)N[C@@H](CCCNC(=N)N)C(=O)O` [SEQ ID no 4, Asn-Pro-Ala-Arg] (H-NPAR-OH; N-terminus and C-terminus assumed), the “aquaporin 3 immunofluorescence” value is listed as “stronger fluorescence”.

For the origin of these results see US20100261658A1, “PEPTIDE FOR ACTIVATING AQUAPORIN SYNTHESIS” (priority 2007, published 2010).
